Results on nine substances are retold here after patent publication US20170073371A1, “ANTIMICROBIAL PEPTIDES” (ROBERT BOSCH GESELLSCHAFT FÜR MEDIZINISCHE FORSCHUNG MBH, priority 2012, published 2017).

For series [1], the system named is Escherichia coli. Description: Antimicrobial radial diffusion assay (inhibition zone diameter). As to conditions: FIG. 1b, 1c. The format is cell-based. Here is the method:
(§1) The letters indicate the amino acids using the single-letter code. […] The diameter of the inhibition zones represents the antimicrobial activity; a diameter of 2.5 mm is the diameter of an empty punched well in an agar plate which contains only carrier fluid (negative control). The experiments were repeated at least three times, and the mean plus standard deviation is shown.
(§2) Antimicrobial radial diffusion assays for anaerobic bacteria were carried out as described previously (see Schröder et al.: “Reduction of disulfide bonds unmasks potent antimicrobial activity of human beta-defensin 1”, Nature, 469: 419-423 (2011)). In brief, the bacteria were anaerobically cultured (Oxoid AnaeroGen”, England) for 24 hours at 37° C. on Columbia agar plates, then inoculated into liquid trypticase soy broth (TSB) medium and cultured again for 24 hours. The bacterial cultures were then washed and diluted to an optical density (OD620 nm)=0.1, of which 150 μl was used for the effectiveness assay. Incubation occurred under anaerobic conditions in 10 ml 10 mM sodium phosphate having a pH of 7.4 with 0.3 mg/ml TSB pwder and 1% (w/v) low-EEO agarose (agarose with very low EEO value)(Appli-Chem) with 0 or 2 mM dithiothreitol (DTT, Sigma Aldrich), with 1 μg synthetic, oxidized hBD-1 (Peptide Institute, Japan) or synthetic peptides, for three hours. An overcoating gel having 6% (w/v) TSB powder, 1% agarose, and 10 mM sodium phosphate buffer (pH 7.4 or 5.7), with or without DTT, was placed onto the plates. After incubation for 48 hours at 37° C. the diameters of the inhibition zones were measured. The experiments were repeated at least three times.

Series [2] concerns Bifidobacterium adolescentis. The description is as above. The format is cell-based. To be noted: for antimicrobial activity (diameter of inhibition zone): FIG. 1, radial diffusion. The protocol:
as §1, §2

Another series relates to E. coli K12. Description: Radial diffusion assay, D- versus L-amino acid octapeptide (FIG. 3a). The format is cell-based, Escherichia coli. Here is the method:
Antimicrobial radial diffusion assays for anaerobic bacteria were carried out as described previously (see Schröder et al.: “Reduction of disulfide bonds unmasks potent antimicrobial activity of human beta-defensin 1”, Nature, 469: 419-423 (2011)). In brief, the bacteria were anaerobically cultured (Oxoid AnaeroGen”, England) for 24 hours at 37° C. on Columbia agar plates, then inoculated into liquid trypticase soy broth (TSB) medium and cultured again for 24 hours. The bacterial cultures were then washed and diluted to an optical density (OD620 nm)=0.1, of which 150 μl was used for the effectiveness assay. Incubation occurred under anaerobic conditions in 10 ml 10 mM sodium phosphate having a pH of 7.4 with 0.3 mg/ml TSB pwder and 1% (w/v) low-EEO agarose (agarose with very low EEO value)(Appli-Chem) with 0 or 2 mM dithiothreitol (DTT, Sigma Aldrich), with 1 μg synthetic, oxidized hBD-1 (Peptide Institute, Japan) or synthetic peptides, for three hours. An overcoating gel having 6% (w/v) TSB powder, 1% agarose, and 10 mM sodium phosphate buffer (pH 7.4 or 5.7), with or without DTT, was placed onto the plates. After incubation for 48 hours at 37° C. the diameters of the inhibition zones were measured. The experiments were repeated at least three times. […]

In series [3] the test system is (opportunistic) pathogenic microorganisms. Description: Flow cytometric antimicrobial assay (membrane depolarization), all tested pathogens. The format is cell-based. As to conditions: 50 μg/ml; E. coli, S. aureus, C. albicans, B. fragilis; FIG. 2. Here is the method: (§3) The following peptides were investigated: modified octapeptide (SEQ ID NO. 4), wild type octapeptide (SEQ ID NO. 1), alanine-mutated octapeptide (SEQ ID NO. 7), and a heptapeptide (SEQ ID NO. 8) (each 50 μg/ml) were tested in a flow cytometric antimicrobial effectiveness assay against Escherichia coli, Staphylococcus aureus, Candida albicans, and Bacteroides fragilis. The letters once again indicate the respective amino acids in the one-letter code. The experiments were repeated twice in double batches, and the mean plus standard deviation is shown;
(§4) Flow cytometric antimicrobial assays with which the membrane depolarization of the bacteria and fungi were measured were carried out as previously described (see Nuding et al., “A flow cytometric assay to monitor antimicrobial activity of defensins and cationic tissue extracts,” Journal of Microbiological Methods, 65: 335-380 (2006)).
(§5) In brief, 1.5×10^6 cells per ml were incubated in 1:6-diluted Schaedler medium at 37° C. with peptides at a final volume of 50 μl. The defensins were dissolved in 0.01% acetic acid and were added to the bacterial/fungal suspensions at the final concentrations indicated. Bacterial or fungal suspensions that had been incubated with solvent (0.01% acetic acid) served here as controls for viability. After 90 minutes the suspensions were incubated for 10 minutes with 1 mg/ml of the membrane-potential-sensitive dye DiBAC4(3) ([bis-(1,3-dibutylbarbiturate)trimethine oxanol]) (Invitrogen, USA). The suspensions were centrifuged, and sediments resuspended in […] phosphate-buffered saline. The percentage of depolarized fluorescing bacteria or fungi in the suspension was determined using a FACSCalibur flow cytometer (Becton-Dickinson, USA) utilizing Cell Quest software (Becton-Dickinson). The experiments were repeated twice, each in duplicate.
Background: In flow cytometry, cells or beads pass a laser one at a time.

A short description of series [4]: Reversed-phase HPLC analysis of hydrophobicity. The series is classed as physicochemical. To be noted: data not shown. Here is the method: For analysis by high performance liquid chromatography (HPLC), the octapeptides were mixed with 0.1% (v/v) trifluoracetic acid (TFA) and analyzed with an Agilent 1200 system (Agilent) and a Synergi reversed phase (RP) column (250×4.6 mm, 4 μm, Phenomenex, Germany).
In further experiments a reversed-phase HPLC analysis was carried out in order to investigate the hydrophobicity of the tested peptides (data not shown).

The subject of a further series is Staphylococcus aureus. The experiment in a line: Flow cytometric antimicrobial assay (membrane depolarization). As to conditions: 50 μg/ml; FIG. 2. The format is cell-based. The protocol: as §3, §4, §5
The subject of series [5] is Escherichia coli. The series is described as above. The series is classed as cell-based. To be noted: 50 μg/ml; FIG. 2. The protocol: as §3, §4, §5
A further series has as its system Candida albicans. The series is described as above. The series is classed as cell-based. To be noted: 50 μg/ml; FIG. 2. Here is the method: as §3, §4, §5
Another series has as its system Bacteroides fragilis. Described as above. The series is classed as cell-based. As to conditions: 50 μg/ml; FIG. 2. Here is the method:
as §3, §4, §5

The subject of series [6] is commensal bacteria of the human intestinal flora. The experiment in a line: Antimicrobial radial diffusion assay of human beta-defensins at pH 7.4 or 5.7, with or without DTT. The series is classed as cell-based. Here is the method:
as §2
In the present case hBD-1 and its antimicrobial activity have been further investigated. For this, the antimicrobial activity of the three human beta-defensins hBD-1, -2, and -3 with respect to commensal bacteria of the human intestinal flora were tested under standard conditions (pH 7.4) and slightly acidic conditions (pH 5.7); under both conditions, reducing conditions were also tested by adding 2 mM of the chemical reducing agent dithiothreitol (DTT) to the growth medium.

For series [7] the following is noted: Schröder et al., Nature 469:419-423 (2011); cited from earlier work.

Where no end group is shown, it is not given here.

On to “RGKAKACK [Cys6 exchanged, octapeptide with Cys6 exchanged for alanine]”, for which the “antimicrobial activity (diameter of inhibition zone)” value in the series on Escherichia coli [1] is recorded as “increased the antimicrobial activity”; in [2] it was “activity was greatly decreased”.
The corresponding values for “RGKAKCAK [Cys7 exchanged, octapeptide with Cys7 exchanged for alanine]” are “increased the antimicrobial activity” and “activity was greatly decreased”.
Consider “RGKAKCCK (not fully specified (some residues); cysteine pairing not given here; also: termini modified in some versions, not given here)”, for which the “activity compared with the peptide made up of L-amino acids” value in series [2] (FIG. 3b) is reported as “elevated activity”; in the series on E. coli K12, “weaker activity”.
Consider “RGKAKCCK [wild type octapeptide, octapeptide of the eight terminal amino acids of the carboxy terminus of hBD-1]”, for which the “antimicrobial activity (diameter of inhibition zone)” value with Escherichia coli [1] is given as “also had antimicrobial activity”; in series [2], “greater antimicrobial activity than the previously tested heptapeptide”. Further, in [3], the “effectiveness (depolarized bacteria or fungi)” value (“effectiveness” for short) is “only marginal in most cases”.
For the substance “ac-RGKAKCCK-NH2 (Ac-RGKAKCCK-NH2; cysteine pairing not given here) [modified octapeptide]”, in [4], the “hydrophobicity (order of elution from RP column)” value was “highest hydrophobicity”. Also, the “antimicrobial activity (diameter of inhibition zone)” value in the series on Escherichia coli [1] was “did not differ significantly by comparison with the wild type peptide”; in series [2], “rose sharply”. Further, the “activity (depolarized bacteria)” value is “outstanding activity” in the series on Staphylococcus aureus; “but not with respect to Escherichia coli and Bacteroides fragilis” with Escherichia coli [5]; “but not with respect to Escherichia coli and Bacteroides fragilis” in the series on Bacteroides fragilis. Besides, the “activity (depolarized fungi)” value in the series with Candida albicans is “outstanding activity”.
“alanine-mutated octapeptide: alanine-mutated octapeptide; both cysteines exchanged (RGKAKAAK) [reference compound]”: the “antimicrobial activity (diameter of inhibition zone)” value in the series on Escherichia coli [1] was “almost entirely shut down antimicrobial activity”; in series [2], “brought activity to a complete standstill”. The “effectiveness” value in series [3] was “only marginal in most cases”.
On to “hBD-1: human beta-defensin 1, obtained from Peptide Institute Inc. (DHYNCVSSGGQCLYSACPIFTKIQGTCYRGKAKCCK; disulfide (positions not given here); UniProt P60022 33-68, looked up)”, for which the “activation of antimicrobial activity by reduction” value in [6] (pH 5.7, 2 mM DTT, data not shown) is “activation was not observed”. The “antimicrobial activity, effect of reduction” value in [6] (reducing conditions, 2 mM dithiothreitol (DTT) in growth medium, data not shown) was “became active by reduction”. Besides, in [6] (standard conditions (pH 7.4), data not shown), the antimicrobial activity result is “largely inactive”. Besides, the “antimicrobial activity under reducing conditions” value in series [7] is listed as “elevated antimicrobial activity”.
For “hBD-3: human beta-defensin, obtained from Peptide Institute Inc. (GIINTLQKYYCRVRGGRCAVLSCLPKEEQIGKCSTRGRKCCRRKK; ends and bridges not checked; cysteine pairing not given here; UniProt P81534 23-67, looked up)”, the “antimicrobial activity compared with the other two defensins” value in series [6] (in most cases, tested commensals) is given as “strongest activity”.
Consider “wild type heptapeptide: heptapeptide that represents the seven terminal amino acids of hBD-1 (GKAKCCK) [reference compound]”, for which, in series [2], the “antimicrobial activity (diameter of inhibition zone)” value is given as “highest activity”. Further, the “effectiveness” value in series [3] is given as “only marginal in most cases”.
